Patent US11142718B2, “Ecofriendly and biodegradable lubricant formulation and process for preparation thereof” (Council of Scientific & Industrial Research, priority 2017, dated 2021)
Like-named read-outs stand apart in the source and are kept apart here.

Key:
Format in all cases: physicochemical
[1] = Viscosity index (P-56)
Method: (§1) In an embodiment of the present invention the polyol complex ester base oils may be selected from the viscosity range of 34.26 to 43.54 cSt at 40° C. as per IS: 1448: P-25 matching the specification and a high viscosity index of 161-171 as per P-56.
(§2) The synthesized products have the following characteristics: • a. The prepared esters have viscosity grade of 31.0 to 47.0 cSt at 40° C. as per P-25 matching the specification and a high viscosity index of 161-171 as per P-56. • b. […] The biodegradability of the synthesized ester is above 95% as per the standard ASTM D: 5864 test method for biodegradability. • e. The products are non toxic to the sewage bacteria. • f. The conventional additives which are suitable for mineral oils are also giving positive response with this ester. • g. The products have good anti wear properties with wear scar diameter of 0.350 mm at 40 kgf load as per ASTM D: 4172B. • h. The products have excellent load bearing capacity. • i. The products have good lubricity. • j. The products have good oxidative stability. • k. The products have no evaporation loss. • l. The products have good adherence to metal characteristics. • m. The products have good corrosion inhibiting characteristics. • n. […] Synthetic biodegradable polyol complex ester lubricating oils have excellent biodegradability, a high viscosity index and a low pour point, a high flash point, very good lubricity, good oxidative stability and property of preventing corrosion and suitable for use with sealing materials. • p.

[2] = Kinematic viscosity (IS: 1448: P-25); conditions: for viscosity at 40° C.: in cSt; for KV in cst at 40° C.: P-25
Method: as §1, §2

[3] = Kinematic viscosity (IS: 1448: P-25); conditions: for viscosity at 100° C. / viscosity at 0° C.: in cSt
[4] = Pour point (IS: 1448: P-10)
Method: as §2

[5] = Density (ASTM D: 4052)
[6] = Evaporation loss (P-136)
[7] = Adherence to metal (drop diameter change, contact angle); conditions: polished mild steel substrates
[8] = Acidity (P-2)

SMILES	viscosity index [1]	viscosity at 40° C. [2]	viscosity at 100° C. [3]	pour point [4] [°C]	viscosity index ([1]; P-56)	Density, d4^20 [5] [gm/ml]	Evaporation loss, % by mass [6] [% by mass]	KV in cst at 40° C. [2] [cst]	KV in cst at 0° C. [3] [cst]	viscosity at 0° C. [3]	KV in cst at −35° C. [3] [cst]	Adherence to metal, change in diameter of the drop, percent [7] [%]	Acidity, Inorganic [8]	Acidity, Organic [8]	pour point ([4]; P-10) [°C]
CCCCC(CC)COC(=O)CCCCCCCC(=O)OCC(CC)(COC(=O)CCCCCCCC(=O)OCC(CC)CCCC)COC(=O)CCCCCCCC(=O)OCC(CC)CCCC (centres unmarked) [THAZEH, 1,1,1-trishydroxymethyl propane triazilaic 2 ethyl 1 hexanoate]	165	46.07	8.53	> −27											
CCCCC(CC)COC(=O)CCCCC(=O)OCC(C)(C)COC(=O)CCCCC(=O)OCC(CC)CCCC (centres unmarked) [DMADEH, 2,2-dimethyl 1,3-propane di adipic 2 ethyl 1 hexanoate]	161	31.00		> −39	161	0.9915	0.48	31.00	323.98	323.98	>4000	12	Nil	0.0817 mg KoH/gm of oil	<−39
CCCCC(CC)COC(=O)CCCCCCCCC(=O)OCC(CC)(COC(=O)CCCCCCCCC(=O)OCC(CC)CCCC)COC(=O)CCCCCCCCC(=O)OCC(CC)CCCC (centres unmarked) [THSEH, 1,1,1-trishydroxymethyl propane trisebacic 2 ethyl 1 hexanoate]	196	111	16.87	> −24											
CCCCC(CC)COC(=O)CCCCCCCC(=O)OCC(C)(C)COC(=O)CCCCCCCC(=O)OCC(CC)CCCC (centres unmarked) [DMAZEH, 2,2-dimethyl 1,3-propane diazelaic 2 ethyl 1 hexanoate]	169	25.44	5.60	> −27											
CCCCC(CC)COC(=O)CCCCC(=O)OCC(CC)(CC)COC(=O)CCCCC(=O)OCC(CC)CCCC (centres unmarked) [DEADEH, 2,2-diethyl 1,3-propane di adipic 2 ethyl 1 hexanoate]	138	91.3	12.83	> −24											
CCCCC(CC)COC(=O)CCCCC(=O)OCC(CC)(COC(=O)CCCCC(=O)OCC(CC)CCCC)COC(=O)CCCCC(=O)OCC(CC)CCCC (centres unmarked) [THADEH, 1,1,1-trishydroxymethyl propane triadipic 2 ethyl 1 hexanoate]	196	26.51	10.17	> −15											
CCCCC(CC)COC(=O)CCCCCCCC(=O)OCC(CC)(CC)COC(=O)CCCCCCCC(=O)OCC(CC)CCCC (centres unmarked) [DEAZEH, 2,2-diethyl 1,3-propane diazelaic 2 ethyl 1 hexanoate]	171	47.0		> −39	171	0.9627	0.42	47.00	408.23	408.23	>5000	13	Nil	0.0635 mg KoH/gm of oil	<−39
CCCCC(CC)COC(=O)CCCCCCCCC(=O)OCC(C)(C)COC(=O)CCCCCCCCC(=O)OCC(CC)CCCC (centres unmarked) [DMSEH, 2,2-dimethyl 1,3-propane disebacid 2 ethyl 1 hexanoate]	172	90.33	14.8	> −24											
CCCCC(CC)COC(=O)CCCCCCCCC(=O)OCC(CC)(CC)COC(=O)CCCCCCCCC(=O)OCC(CC)CCCC (centres unmarked) [DESEH, 2,2-diethyl 1,3-propane disebacic 2 ethyl 1 hexanoate]	165	36.8	7.24	> −39											
